Measured values as given in patent US20060269907A1, “Decontamination of biological fluids using diphenylpyrilium compounds” (priority 2003, published 2006).
Where two headings read alike, the source gives them in different places.

Key:
[1] = system: S. liquefaciens; format: cell-based
[2] = system: intracellular VSV; format: cell-based, Vesicular Stomatitis Virus
[3] = system: P. fluorescens; format: cell-based
[4] = system: red cells
[5] = system: Y. enterocolitica; assay: Bacterial photoinactivation in red cell suspensions; format: cell-based
[6] = system: extracellular VSV; format: cell-based, Vesicular Stomatitis Virus
[7] = system: S. marcescens; format: cell-based
[8] = system: S. epidermidis; format: cell-based
[9] = system: D. radiodurans; assay: Bacterial photoinactivation in red cell suspensions; format: cell-based; conditions: 160 μM compound 2; RBCs 20% hematocrit in Erythrosol; 2 min 8.9 mW/cm^2 red light
[10] = system: gram positive and gram negative organisms; format: cell-based
[11] = system: E. coli; assay: Bacterial photoinactivation in red cell suspensions; format: cell-based
[12] = system: S. aureus; assay: as above; format: cell-based
[13] = system: extracellular DHBV; assay: Photoinactivation of extracellular DHBV in RBC suspensions; format: cell-based; conditions: 10 μM TP; 200 μM DP; 20-percent hct RBCs in Erythrosol; 1.1 J/cm^2 light
[14] = system: extracellular HIV; assay: Photoinactivation of extracellular HIV in RBC suspensions; format: cell-based, HIV-1; conditions: 80 μM TP; 200 μM DP; 20-percent hct RBCs in Erythrosol; 1.1 J/cm^2 light
[15] = system: extracellular BVDV; format: cell-based
[16] = system: intracellular HIV; assay: Photoinactivation of intracellular HIV in RBC suspensions; format: cell-based, HIV-1; conditions: 80 μM TP; 200 μM DP; 20-percent hct RBCs in Erythrosol; 1.1 J/cm^2 light
[17] = system: RBCs; conditions: n = 4
[18] = system: red cells; conditions: n=10
[19] = system: all tested viruses; format: cell-based
[20] = system: extracellular PRV; format: cell-based, Pseudorabies virus
[21] = system: red blood cells; conditions: cited from earlier work
[22] = system: RBCs; assay: Spectroscopic assay of TP binding to RBCs; conditions: 200 μM DP; 160 μM TP; 20-percent hct RBCs in Erythrosol
[23] = 160 μM compound 2, RBCs 20% hematocrit in Erythrosol, 2 min 8.9 mW/cm^2 red light
[24] = 100 μM TP, 200 μM DP and 1.1 J/cm^2 red light, 20% hct RBCs in Erythrosol, n = 4

Cc1cc(-c2ccc(N(C)C)cc2)cc(-c2ccc(N(C)C)cc2)[s+]1 [Compound 2, 2′,4′-bis(4-N,N-dimethylaminophenyl) 6′-methylthiopyrilium iodide]
log10 inactivation [1]: >7.4 log10
log10 inactivation of intracellular VSV [2]: 4.0 log10
log10 VSV inact. (intracellular) ([2]; 160 μM): >5 log10
log10 inactivation [3]: >7.7 log10
hemolysis [4]: < 1%
Hemolysis (%) (day 42) ([4]; 160 μM): 0.45%
log10 inactivation [5, 23]: >7.5 log10
log10 inactivation of extracellular VSV [6]: > 7 log10
Log10 VSV inact. (extracellular) ([6]; 10 μM): 1.3 log10
Log10 VSV inact. (extracellular) ([6]; 20 μM): 2.2 log10
Log10 VSV inact. (extracellular) ([6]; 30 μM): 2.7 log10
Log10 VSV inact. (extracellular) ([6]; 60 μM): 4.8 log10
Log10 VSV inact. (extracellular) ([6]; 90 μM): 5.7 log10
Log10 VSV inact. (extracellular) ([6]; 160 μM): >7 log10
log10 inactivation [7]: >6.9 log10
log10 inactivation [8]: >7.9 log10
log10 inactivation [9]: >7.9 log10
bacteria remaining after inactivation (limit of detection) [10]: < 1 CFU/mL
log10 inactivation [11, 23]: >7.9 log10
log10 inactivation [12, 23]: >6.8 log10

Cc1cc(-c2ccc(N(C)C)cc2)cc(-c2ccc(N(C)C)cc2)[s+]1.[I-] [Compound 2, 2′,4′-bis(4-N,N-dimethylaminophenyl) 6′-methylthiopyrilium iodide]
log10 inactivation ([1]; n = 4): >7.1 log10
log10 inactivation ([3]; n = 4): 5.4 ± 1.0 log10
log10 inactivation of extracellular DHBV [13]: > 5.8 log10
hemolysis following 42 day 1-6° C. storage ([4]; n=10): 0.29%
log10 inactivation [5, 24]: 5.9 ± 0.6 log10
log10 inactivation of extracellular VSV [6]: > 8.4 log10
log10 inactivation ([7]; n = 4): 6.2 ± 1.0 log10
log10 inactivation of extracellular HIV [14]: > 7.5 log10
log10 inactivation ([8]; n = 4): >7.6 log10
log10 inactivation of 5 of 7 tested organisms [10]: > 6 log10
log10 inactivation of all tested organisms [10]: > 4 log10
log10 inactivation of extracellular BVDV [15]: > 6 log10
log10 inactivation of intracellular HIV [16]: 6.2±0.1 log10
log10 inactivation [11, 24]: 7.1 ± 0.5 log10
ATP level [17]: 2.63±0.07 μmole/g Hb
morphology score [17]: 94.5±1.5
potassium in the supernatant [18]: 16.6 ± 4.2 mM
potassium released to the supernatant [18]: 38.4 ± 4.4 mM
log10 inactivation [12, 24]: >6.3 log10
inactivation of all tested viruses [19]: inactivated to the limit of assay detection
log10 inactivation of extracellular PRV [20]: > 6.3 log10

Cc1cc(=[N+](C)C)cc2sc3cc(N(C)C)cc(C)c3nc1-2.[Cl-] [dimethylmethylene blue]
hemolysis ([21]; dye and light, after 6 week refrigerated storage in ADSOL): roughly 25%
hemolysis ([21]; following 6 weeks of 1-6° C. storage in Erythrosol): about 2%
hemolysis ([21]; six weeks of 1-6° C. storage in Erythrosol, RBCs pre-incubated with quinacrine): approximately 1.2%

OCCN(CCO)c1nc(N2CCCCC2)c2nc(N(CCO)CCO)nc(N3CCCCC3)c2n1 [dipyridamole, reference compound]
TP binding sites in RBCs blocked by DP [22]: approximately 36%
